Data as given in paper PMC5218480 (PLoS ONE, 2017).

Tested on: MV-4-11 cells
Assay: Gene expression microarray analysis (Affymetrix PrimeView) and GSEA
Type: cell-based, human
Set-up: RFU PODN (11730768_x_at) / Fold change /veh PODN (11730768_x_at) / RFU LINC00158 (11744669_a_at) / Fold change /veh LINC00158 (11744669_a_at) / RFU DUSP10 (11751237_a_at) / Fold change /veh DUSP10 (11751237_a_at) / RFU ID3 (11757404_x_at) / Fold change /veh ID3 (11757404_x_at) / RFU PLEKHG5 (11737974_s_at) / Fold change /veh PLEKHG5 (11737974_s_at) / RFU LRRC4B (11730491_at) / Fold change /veh LRRC4B (11730491_at) / RFU GIMAP4 (11747438_a_at) / Fold change /veh GIMAP4 (11747438_a_at) / RFU KRT8 (11758183_x_at) / Fold change /veh KRT8 (11758183_x_at) / RFU CNN1 (11734310_a_at) / Fold change /veh CNN1 (11734310_a_at) / RFU VPS37D (11726825_at) / Fold change /veh VPS37D (11726825_at) / RFU C10orf10 (11716522_x_at) / Fold change /veh C10orf10 (11716522_x_at) / RFU KIR2DL2 /// KIR2DL4 /// KIR2DL5A /// KIR2DL5B /// KIR2DS1 /// KIR2DS2 /// KIR2DS3 /// KIR2DS4 /// KIR3DL3 /// KIR3DL3 /// KIR3DS1 (11738374_at) / Fold change /veh KIR2DL2 /// KIR2DL4 /// KIR2DL5A /// KIR2DL5B /// KIR2DS1 /// KIR2DS2 /// KIR2DS3 /// KIR2DS4 /// KIR3DL3 /// KIR3DL3 /// KIR3DS1 (11738374_at) / RFU C1QL1 (11718748_at) / Fold change /veh C1QL1 (11718748_at) / RFU TMPRSS4 (11747572_a_at) / Fold change /veh TMPRSS4 (11747572_a_at) / RFU HAMP (11756126_x_at) / Fold change /veh HAMP (11756126_x_at) / RFU RNFT2 (11725882_a_at) / Fold change /veh RNFT2 (11725882_a_at) / RFU NR4A2 (11747474_a_at) / Fold change /veh NR4A2 (11747474_a_at) / RFU ABCC12 (11746883_a_at) / Fold change /veh ABCC12 (11746883_a_at) / RFU TMEM136 (11760407_x_at) / Fold change /veh TMEM136 (11760407_x_at) / RFU CLDN22 /// WWC2 (11732394_at) / Fold change /veh CLDN22 /// WWC2 (11732394_at) / RFU HLA-DPB1 (11760878_x_at) / Fold change /veh HLA-DPB1 (11760878_x_at) / RFU SPINT1 (11716480_a_at) / Fold change /veh SPINT1 (11716480_a_at) / RFU GAP43 (11754022_s_at) / Fold change /veh GAP43 (11754022_s_at) / RFU A4GNT (11735810_at) / Fold change /veh A4GNT (11735810_at) / RFU PRB3 (11715151_x_at) / Fold change /veh PRB3 (11715151_x_at) / RFU TUBB4B (11761932_at) / Fold change /veh TUBB4B (11761932_at) / RFU CAPN14 (11732068_a_at) / Fold change /veh CAPN14 (11732068_a_at) / RFU TMCC2 (11721928_a_at) / Fold change /veh TMCC2 (11721928_a_at) / RFU IRGQ (11745062_a_at) / Fold change /veh IRGQ (11745062_a_at) / RFU FAM174B (11720279_a_at) / Fold change /veh FAM174B (11720279_a_at) / RFU TMPRSS4 (11748680_a_at) / Fold change /veh TMPRSS4 (11748680_a_at) / RFU FAM212B (11763350_a_at) / Fold change /veh FAM212B (11763350_a_at) / RFU PLEKHG5 (11743358_a_at) / Fold change /veh PLEKHG5 (11743358_a_at) / RFU ZSCAN30 (11745921_a_at) / Fold change /veh ZSCAN30 (11745921_a_at) / RFU CMKLR1 (11741424_a_at) / Fold change /veh CMKLR1 (11741424_a_at) / RFU LOC101060620 /// MAPK8IP1 (11723275_at) / Fold change /veh LOC101060620 /// MAPK8IP1 (11723275_at) / RFU SPTSSB (11747773_x_at) / Fold change /veh SPTSSB (11747773_x_at) / RFU PRSS12 (11739890_at) / Fold change /veh PRSS12 (11739890_at) / RFU BIN1 (11741810_x_at) / Fold change /veh BIN1 (11741810_x_at) / RFU WNT11 (11732464_a_at) / Fold change /veh WNT11 (11732464_a_at) / RFU C10orf10 (11716521_a_at) / Fold change /veh C10orf10 (11716521_a_at) / RFU C5orf56 (11738089_at) / Fold change /veh C5orf56 (11738089_at) / RFU CYB561 (11721691_x_at) / Fold change /veh CYB561 (11721691_x_at) / RFU ANKRD19P (11752326_a_at) / Fold change /veh ANKRD19P (11752326_a_at) / RFU OR2T12 /// OR2T33 /// OR2T8 (11738714_s_at) / Fold change /veh OR2T12 /// OR2T33 /// OR2T8 (11738714_s_at) / RFU VCAN (11748164_a_at) / Fold change /veh VCAN (11748164_a_at) / RFU JSRP1 (11732532_at) / Fold change /veh JSRP1 (11732532_at) / RFU KRTAP10-11 (11738290_x_at) / Fold change /veh KRTAP10-11 (11738290_x_at) / RFU MYO3A (11730013_a_at) / Fold change /veh MYO3A (11730013_a_at) / RFU EBF3 (11725865_a_at) / Fold change /veh EBF3 (11725865_a_at) / RFU CAMK2N1 (11719241_x_at) / Fold change /veh CAMK2N1 (11719241_x_at) / RFU C5orf56 (11738088_a_at) / Fold change /veh C5orf56 (11738088_a_at) / RFU OLFML3 (11715873_a_at) / Fold change /veh OLFML3 (11715873_a_at) / RFU LOC100653217 /// NTM (11731650_a_at) / Fold change /veh LOC100653217 /// NTM (11731650_a_at) / RFU MAPK11 (11762145_a_at) / Fold change /veh MAPK11 (11762145_a_at) / RFU FIZ1 (11724087_x_at) / Fold change /veh FIZ1 (11724087_x_at) / RFU OASL (11726364_x_at) / Fold change /veh OASL (11726364_x_at) / RFU SOX15 (11748057_x_at) / Fold change /veh SOX15 (11748057_x_at) / RFU CD79A (11719716_a_at) / Fold change /veh CD79A (11719716_a_at) / RFU HIST1H1D (11736915_at) / Fold change /veh HIST1H1D (11736915_at) / RFU CASKIN2 (11723855_a_at) / Fold change /veh CASKIN2 (11723855_a_at) / RFU LOC730098 (11760151_x_at) / Fold change /veh LOC730098 (11760151_x_at) / RFU OR4N2 (11742367_at) / Fold change /veh OR4N2 (11742367_at) / RFU PRRT2 (11749266_a_at) / Fold change /veh PRRT2 (11749266_a_at) / RFU SNX32 (11753110_a_at) / Fold change /veh SNX32 (11753110_a_at) / RFU CDHR5 (11726645_a_at) / Fold change /veh CDHR5 (11726645_a_at) / RFU RCAN1 (11760418_a_at) / Fold change /veh RCAN1 (11760418_a_at) / RFU FAM167A (11723789_a_at) / Fold change /veh FAM167A (11723789_a_at) / RFU FAM26E (11764081_at) / Fold change /veh FAM26E (11764081_at) / RFU ISYNA1 (11749810_s_at) / Fold change /veh ISYNA1 (11749810_s_at) / RFU ACY1 (11761880_at) / Fold change /veh ACY1 (11761880_at) / RFU 11764098_at / Fold change /veh 11764098_at / RFU SAMD14 (11745864_x_at) / Fold change /veh SAMD14 (11745864_x_at) / RFU NPB (11741838_a_at) / Fold change /veh NPB (11741838_a_at) / RFU TMPRSS6 (11731388_a_at) / Fold change /veh TMPRSS6 (11731388_a_at) / RFU KRTAP10-2 (11738614_at) / Fold change /veh KRTAP10-2 (11738614_at) / RFU ARHGAP8 /// PRR5-ARHGAP8 (11727945_x_at) / Fold change /veh ARHGAP8 /// PRR5-ARHGAP8 (11727945_x_at) / RFU KRTAP5-7 /// NADSYN1 (11734609_at) / Fold change /veh KRTAP5-7 /// NADSYN1 (11734609_at) / RFU RASL12 (11751679_a_at) / Fold change /veh RASL12 (11751679_a_at) / RFU CDKN2B (11736163_a_at) / Fold change /veh CDKN2B (11736163_a_at) / RFU PRF1 (11729649_at) / Fold change /veh PRF1 (11729649_at) / RFU, ZNF638 /// ZNF638-IT1 / Fold change vs veh, ZNF638 /// ZNF638-IT1 / RFU, PANK3 / Fold change vs veh, PANK3 / RFU, SH3YL1 / Fold change vs veh, SH3YL1 / RFU, ZEB2 / Fold change vs veh, ZEB2 / RFU, NRIP1 / Fold change vs veh, NRIP1 / RFU, PTTG1IP / Fold change vs veh, PTTG1IP / RFU, CAPN2 / Fold change vs veh, CAPN2 / RFU, MED14 / Fold change vs veh, MED14 / RFU, SNORA58 / Fold change vs veh, SNORA58 / RFU, C1orf63 / Fold change vs veh, C1orf63 / RFU, LRRFIP1 / Fold change vs veh, LRRFIP1 / RFU, NDUFAF7 / Fold change vs veh, NDUFAF7 / RFU, SLC12A2 / Fold change vs veh, SLC12A2 / RFU, IBTK / Fold change vs veh, IBTK / RFU, ESF1 / Fold change vs veh, ESF1 / Fold change vs veh, TMEM50B / RFU, TAOK1 / Fold change vs veh, TAOK1 / RFU, ACBD3 / Fold change vs veh, ACBD3 / RFU, TMA16 / Fold change vs veh, TMA16 / RFU, RWDD3 / Fold change vs veh, RWDD3 / RFU, BCAT1 / Fold change vs veh, BCAT1 / RFU, EDEM3 / Fold change vs veh, EDEM3 / RFU, TMEM33 / Fold change vs veh, TMEM33 / RFU, WDR75 / Fold change vs veh, WDR75 / RFU, AHCTF1 / Fold change vs veh, AHCTF1 / RFU, TFRC / Fold change vs veh, TFRC / RFU, ZDHHC17 / Fold change vs veh, ZDHHC17 / RFU, NOM1 / Fold change vs veh, NOM1 / RFU, ARL8B / Fold change vs veh, ARL8B / RFU, ZBTB11 / Fold change vs veh, ZBTB11 / RFU, TAMM41 / Fold change vs veh, TAMM41 / RFU, KIAA1704 /// LOC100996395 / Fold change vs veh, KIAA1704 /// LOC100996395 / RFU, ING1 / Fold change vs veh, ING1 / RFU, TRMT61B / Fold change vs veh, TRMT61B / RFU, FUBP3 / Fold change vs veh, FUBP3 / RFU, TP53 / Fold change vs veh, TP53 / RFU, TNKS2 / Fold change vs veh, TNKS2 / RFU, ZFP14 / Fold change vs veh, ZFP14 / RFU, ACTR2 / Fold change vs veh, ACTR2 / RFU, PPP3R1 / Fold change vs veh, PPP3R1 / RFU, PIK3R1 / Fold change vs veh, PIK3R1 / RFU, HNRNPA1 / Fold change vs veh, HNRNPA1 / RFU, RNF170 / Fold change vs veh, RNF170 / RFU, ZNF28 / Fold change vs veh, ZNF28 / RFU, RNGTT / Fold change vs veh, RNGTT / RFU, OGT / Fold change vs veh, OGT / RFU, BRD1 / Fold change vs veh, BRD1 / RFU, MARS / Fold change vs veh, MARS / RFU, ZNF655 / Fold change vs veh, ZNF655 / RFU, FAHD1 / Fold change vs veh, FAHD1 / RFU, BDP1 / Fold change vs veh, BDP1 / RFU, LRRCC1 / Fold change vs veh, LRRCC1 / RFU, ARID1A / Fold change vs veh, ARID1A / RFU, ZNF146 / Fold change vs veh, ZNF146 / RFU, ZNF330 / Fold change vs veh, ZNF330 / RFU, GPN3 / Fold change vs veh, GPN3 / RFU, C9orf123 / Fold change vs veh, C9orf123 / RFU, N4BP2L2 / Fold change vs veh, N4BP2L2 / RFU, ARFIP1 / Fold change vs veh, ARFIP1 / RFU, FAM179B / Fold change vs veh, FAM179B / RFU, BCL10 / Fold change vs veh, BCL10 / RFU, UHRF1BP1L / Fold change vs veh, UHRF1BP1L / RFU, BET1 / Fold change vs veh, BET1 / RFU, CNOT2 / Fold change vs veh, CNOT2 / RFU, ZNF268 / Fold change vs veh, ZNF268 / Fold change vs veh, ZNF507 / RFU, DGCR2 / Fold change vs veh, DGCR2 / RFU, WDSUB1 / Fold change vs veh, WDSUB1 / Fold change vs veh, HSP90B1 /// MIR3652 / RFU, ADSS / Fold change vs veh, ADSS / RFU, GK / Fold change vs veh, GK / RFU, ZNF148 / Fold change vs veh, ZNF148 / RFU, TAF9 / Fold change vs veh, TAF9 / RFU, SLC1A5 / Fold change vs veh, SLC1A5 / RFU, SLMO2 / Fold change vs veh, SLMO2 / RFU, ABCC4 / Fold change vs veh, ABCC4 / RFU, LOC101060439 /// RAP1B / Fold change vs veh, LOC101060439 /// RAP1B / RFU, RFX7 / Fold change vs veh, RFX7 / RFU, GTPBP10 / Fold change vs veh, GTPBP10 / RFU, CNEP1R1 / Fold change vs veh, CNEP1R1 / RFU, BIVM-ERCC5 /// ERCC5 / Fold change vs veh, BIVM-ERCC5 /// ERCC5 / RFU, ILF3 / Fold change vs veh, ILF3 / RFU 11762660_at / Fold change /veh 11762660_at / RFU VCAN (11757783_s_at) / Fold change /veh VCAN (11757783_s_at) / RFU DDX43 (11728927_at) / Fold change /veh DDX43 (11728927_at) / RFU KRT8 (11758188_x_at) / Fold change /veh KRT8 (11758188_x_at) / RFU NKD1 (11759106_at) / Fold change /veh NKD1 (11759106_at) / RFU SRD5A1 (11742802_a_at) / Fold change /veh SRD5A1 (11742802_a_at) / RFU TPSAB1 /// TPSB2 (11721975_s_at) / Fold change /veh TPSAB1 /// TPSB2 (11721975_s_at) / RFU GSTM3 (11746129_a_at) / Fold change /veh GSTM3 (11746129_a_at) / RFU IL23R (11737362_x_at) / Fold change /veh IL23R (11737362_x_at) / RFU TMEM51 (11727254_a_at) / Fold change /veh TMEM51 (11727254_a_at) / RFU PIWIL2 (11732686_x_at) / Fold change /veh PIWIL2 (11732686_x_at) / RFU ORM1 (11744905_x_at) / Fold change /veh ORM1 (11744905_x_at) / RFU CCDC152 (11743942_at) / Fold change /veh CCDC152 (11743942_at) / RFU ECM1 (11717891_a_at) / Fold change /veh ECM1 (11717891_a_at) / RFU IL23R (11748794_a_at) / Fold change /veh IL23R (11748794_a_at) / RFU TNFAIP8L3 (11732012_x_at) / Fold change /veh TNFAIP8L3 (11732012_x_at) / RFU MBOAT4 (11741988_at) / Fold change /veh MBOAT4 (11741988_at) / RFU 11764193_at / Fold change /veh 11764193_at / RFU TMEM53 (11763286_at) / Fold change /veh TMEM53 (11763286_at) / RFU MAGEB2 (11727129_at) / Fold change /veh MAGEB2 (11727129_at) / RFU TMEM200A (11744735_a_at) / Fold change /veh TMEM200A (11744735_a_at) / RFU CCDC152 (11751479_a_at) / Fold change /veh CCDC152 (11751479_a_at) / RFU FAM211A (11726209_a_at) / Fold change /veh FAM211A (11726209_a_at) / RFU RGS16 (11746705_a_at) / Fold change /veh RGS16 (11746705_a_at) / RFU VCAN (11755009_s_at) / Fold change /veh VCAN (11755009_s_at) / RFU RHOB (11743442_s_at) / Fold change /veh RHOB (11743442_s_at) / RFU RGS16 (11720943_a_at) / Fold change /veh RGS16 (11720943_a_at) / RFU RGS16 (11720944_at) / Fold change /veh RGS16 (11720944_at) / RFU, VPS4B / Fold change vs veh, VPS4B / RFU, CREB1 / Fold change vs veh, CREB1 / RFU, DNAJC13 / Fold change vs veh, DNAJC13 / RFU, GNAQ / Fold change vs veh, GNAQ / RFU, CDK5R1 / Fold change vs veh, CDK5R1 / RFU, ZRANB3 / Fold change vs veh, ZRANB3 / RFU, CUL4A / Fold change vs veh, CUL4A / RFU, CCNY / Fold change vs veh, CCNY / RFU, UFL1 / Fold change vs veh, UFL1 / RFU, COG3 / Fold change vs veh, COG3 / RFU, DIAPH2 / Fold change vs veh, DIAPH2 / RFU, SKA2 / Fold change vs veh, SKA2 / RFU, AFF3 / Fold change vs veh, AFF3 / RFU, LMF1 / Fold change vs veh, LMF1 / RFU, IPO11 / Fold change vs veh, IPO11 / RFU, DFFB / Fold change vs veh, DFFB / RFU, FOXP1 / Fold change vs veh, FOXP1 / RFU, CARD8 / Fold change vs veh, CARD8 / RFU, STRN3 / Fold change vs veh, STRN3 / RFU, ADK / Fold change vs veh, ADK / RFU, RASSF2 / Fold change vs veh, RASSF2 / RFU, WIPF1 / Fold change vs veh, WIPF1 / RFU, LARP1B / Fold change vs veh, LARP1B / RFU, RASA1 / Fold change vs veh, RASA1 / RFU, RB1 / Fold change vs veh, RB1 / RFU, PPFIA1 / Fold change vs veh, PPFIA1 / RFU, MAT2A / Fold change vs veh, MAT2A / RFU, CCT5 / Fold change vs veh, CCT5 / RFU, WDR92 / Fold change vs veh, WDR92 / RFU, CUX1 / Fold change vs veh, CUX1 / RFU, TTC7A / Fold change vs veh, TTC7A / RFU, TMEM135 / Fold change vs veh, TMEM135 / RFU, DEPTOR / Fold change vs veh, DEPTOR / RFU, CPM / Fold change vs veh, CPM / RFU, DNAJB6 / Fold change vs veh, DNAJB6 / RFU, CACNA2D3 / Fold change vs veh, CACNA2D3 / RFU, DTX4 / Fold change vs veh, DTX4 / RFU, TFCP2 / Fold change vs veh, TFCP2 / RFU, GMCL1 /// GMCL1P1 / Fold change vs veh, GMCL1 /// GMCL1P1 / RFU, AEBP2 / Fold change vs veh, AEBP2 / RFU, SNHG1 /// SNORD22 /// SNORD25 /// SNORD26 /// SNORD27 /// SNORD28 /// SNORD29 /// SNORD31 / Fold change vs veh, SNHG1 /// SNORD22 /// SNORD25 /// SNORD26 /// SNORD27 /// SNORD28 /// SNORD29 /// SNORD31 / Fold change (Aza/veh), C12orf56 (ProbeSet 11735607_a_at) / Fold change (ACY-1035/veh), C12orf56 (ProbeSet 11735607_a_at) / Fold change (Aza/veh), FGFR1OP (ProbeSet 11751329_s_at) / Fold change (ACY-1035/veh), FGFR1OP (ProbeSet 11751329_s_at) / Fold change (Aza/veh), VPS36 (ProbeSet 11739960_a_at) / Fold change (ACY-1035/veh), VPS36 (ProbeSet 11739960_a_at) / RFU SYPL1 (11715823_x_at) / Fold change /veh SYPL1 (11715823_x_at) / RFU IGFBP7 (11715501_s_at) / Fold change /veh IGFBP7 (11715501_s_at) / RFU REEP3 (11722064_at) / Fold change /veh REEP3 (11722064_at) / RFU IGLL1 (11728026_x_at) / Fold change /veh IGLL1 (11728026_x_at): dose or concentration left out as unconfirmed
Settings: MV-4-11 cells, 48 hours

`Nc1ccc(-c2cccs2)cc1NC(=O)c1ccc2c(c1)cc(C1CC1)n2CCN1CCOCC1` [ACY-1035] was tested, and the “RFU DUSP10 (11751237_a_at)” value was 30.58 RFU.
